From US9630991B2, “βsheet tapes ribbons in tissue engineering” (University of Leeds, priority 2002, dated 2017)
Where a SMILES comes first, the peptide text is derived from it. [ ]: non-standard residue; d: D form. Orn = NCCC[C@H](N)C(=O)O

Assays:
[1] = tested on: tissue surrounding the injection site; set-up: species or system mice; conditions: mouse, in vivo
Source text: Injection of P11-3 and P11-8 peptide solutions in cell media in mice has shown no effect of the presence of the peptide in the tissue surrounding the injection site as judged by histology after two and eight weeks following the peptide injection.

[2] = Self-assembly and gel formation in physiological solution / cell media; format: physicochemical
Source text: A large number (dozens) of systematically varied peptides (typically 7-30 residues long) have been studied for soluble polymer and gel formation in cell media. […] Only peptides with a approximate net +2 or −2 charge per peptide at physiological pH=7.5, were able to form soluble polymers and gel cell media (The amount of net charge necessary per peptide to keep its polymers soluble in cell media will vary depending on the overall surface properties and solubility of the peptide tapes it forms). […] These peptides retained a predominantly monomeric state and their solutions in cell media were fluids up to around 40 mg/ml peptide concentration.
The rationally designed peptide P11-8 (Tables 1A and 1C) was dissolved in 145 mM NaCl, pH˜7.5 aqueous solution (the ionic strength and pH values of the solution were similar to those present in cell culture medium) or it was added directly in cell culture medium.
The fibrils of P11-8 entwined partly with each other forming a three dimensional network and turned the peptide solution in cell media into a homogeneous self-supporting gel at peptide concentration higher than 15 mg/ml.
The gel could be temporarily broken by mechanical agitation. The time it took the gel to reform depended on the peptide concentration, ranging from seconds for a 35 mg/ml peptide gel, to hours for a 15 mg/ml peptide gel.

[3] = Net charge of peptide at pH 7.5 in physiological solution; format: physicochemical; conditions: per peptide, pH 7.5, physiological solution
[4] = Fibril dimensions measured from TEM images; format: physicochemical; conditions: for L, fibril contour length / h, twist pitch / l, fibril persistence length / wn, width of the fibril at its narrowest point / ww, width of the fibril at its widest point: physiological conditions, TEM
Protocol: For, electron microscopy, samples were examined using a Phillips CM10 TEM at 80-100 kV accelerating voltage. Gels were diluted to a peptide concentration of 20 μM seconds before application to a glow-discharged, carbon-coated, copper grid followed by coating with uranyl acetate solution (4% w/v in water).
The dimensions of the fibrils formed by these peptides are given in Table 2, and TEM images from which these measurements were obtained are shown in FIGS. 6A-6D. These dimensions are—the length of a peptide fibril (contour length, L), the length of a peptide fibril before it curves (persistence length, l), the length of a full twist of a peptide fibril (twist pitch, h) the width of a fibril at its widest point (ww) and the width of the fibril at its narrowest point as it twists (wn).

[5] = Self-assembly and gel formation in physiological solution / cell media; format: physicochemical; remark: listed apart in the source
L929 murine fibroblasts = assay: Contact cytotoxicity testing; format: cell-based; conditions: peptide gels in culture with L929 fibroblasts
Source text: L929 murine fibroblasts growing in contact with the negative collagen control are shown in FIG. 5B and the positive control of cyanoacrylate adhesive is shown in FIG. 5A.

L929 fibroblast cells = assay: Cell density in peptide gels by ATPLite assay; format: cell-based, murine
Source text: After establishing that the peptides tested were not cytotoxic when placed in culture with L929 fibroblast cells, the next stage was assessing the suitability of the collagen peptide gels for use in supporting cell proliferation.

[6] = Persistence length of tapes, ribbons and fibrils in water; format: physicochemical
Source text: The tapes, ribbons, fibrils and fibres are increasingly more rigid structures.

[7] = Isotropic to nematic transition concentration; format: physicochemical; conditions: ribbons of P11-1, fibrils of P11-2
Protocol: We have also shown that above a certain peptide concentration cI/N (isotropic to nematic transition concentration) the semi-rigid ribbons, fibrils and fibres can align and thus transform their initially isotropic solution into a nematic liquid crystalline solution. The transition of the solution to the nematic liquid crystalline state happens at lower concentrations for more rigid polymers. For example, the nematic transition for solutions of ribbons of P11-1 peptide occurs at cI/N≈13 mM, whilst the nematic transition for solutions of the much more rigid fibrils of P11-2 peptide occurs at cI/N≈0.9 mM.

[8] = Geometrical sizes from X-ray diffraction data and molecular modelling; format: physicochemical
Source text: FIG. 2. Model of hierarchical self-assembly of beta-sheet forming peptides. Each peptide in beta-strand conformation, is depicted as a chiral rod-like unit (a). Local arrangements (c-f) and the corresponding global equilibrium conformations (c′-f′) for the hierarchical self-assembling structures formed in solutions of chiral molecules (a), which have complementary donor and acceptor groups, shown by arrows, via which they interact and align to form tapes (c). The black and the white surfaces of the rod (a) are reflected in the sides of the helical tape (c) which is chosen to curl towards the black side (c′). The outer sides of the twisted ribbon (d), of the fibril (e) and of the fibre (f) are all white. One of the fibrils in the fibre (f′) is drawn with darker shade for clarity. (e) & (f) show the front views of the edges of fibrils and fibres, respectively. Geometrical sizes (the numbers in parentheses show the values of the corresponding geometric sizes for P11-I and P11-II peptides, based on X-ray diffraction data and molecular modelling): inter-rod separation in a beta-sheet tape b2 (b2=0.47 nm); tape width, equal to the length of a rod, b1 (b1=4 nm); inter-ribbon distance in the fibril, α (α=1.6-2 nm for P11-I, and α=2-2.4 nm for P11-II).

[9] = 145 mM NaCl, pH~7.5 or cell culture medium

Compound	Net charge at pH 7.5 [3]	L, fibril contour length [4]	h, twist pitch [4]	l, fibril persistence length [4]	wn, width of the fibril at its narrowest point [4]	ww, width of the fibril at its widest point [4]	contact cytotoxicity (L929 murine fibroblasts)	other results
CC(=O)N[C@@H](CCC(N)=O)C(=O)N[C@@H](CCC(N)=O)C(=O)N[C@@H](CCCNC(=N)N)C(=O)N[C@@H](Cc1ccccc1)C(=O)N[C@@H](CCCN)C(=O)N[C@@H](Cc1c[nH]c2ccccc12)C(=O)N[C@@H](CCCN)C(=O)N[C@@H](Cc1ccccc1)C(=O)N[C@@H](CCC(=O)O)C(=O)N[C@@H](CCC(N)=O)C(=O)N[C@@H](CCC(N)=O)C(N)=O [Peptide P11-8, CH3CO-Q-Q-R-F-O-W-O-F-E-Q-Q-NH2] (Ac-QQRF[Orn]W[Orn]FEQQ-NH2)	+2	1.2-6.3 μm	140-320 nm	0.8-2.5 μm	4-11 nm	13-19 nm	–	effect on tissue surrounding the injection site by histology [1]: no effect; time for gel to reform after mechanical agitation ([2]; 15 mg/ml peptide gel): hours; time for gel to reform after mechanical agitation ([2]; 35 mg/ml peptide gel): seconds; fibrils and gels after sterilisation using an autoclave ([2]; cell media): reform after sterilisation using an autoclave; peptide concentration for homogeneous self-supporting gel ([2]; cell media): higher than 15 mg/ml; gel stability ([2]; room temperature, cell media): stable for at least several weeks; fibril full pitch [4, 9]: 200-300 nm; fibril length [4, 9]: several micrometers; fibril narrow width [4, 9]: 4-5 nm; fibril wide width [4, 9]: 12-15 nm; conformation / solution state in water ([5]; pH<7 in water): monomeric random coil conformation; self-assembly in low ionic strength media ([5]; pH=7.5, peptide concentrations up to 10 mg/ml): does not self-assemble
CC(=O)N[C@@H](CC(N)=O)C(=O)N[C@@H](CC(N)=O)C(=O)N[C@@H](CCCNC(=N)N)C(=O)N[C@@H](Cc1ccccc1)C(=O)N[C@@H](CCC(=O)O)C(=O)N[C@@H](Cc1c[nH]c2ccccc12)C(=O)N[C@@H](CCC(=O)O)C(=O)N[C@@H](Cc1ccccc1)C(=O)N[C@@H](CCC(=O)O)C(=O)N[C@@H](CC(N)=O)C(=O)N[C@@H](CC(N)=O)C(N)=O [Peptide P11-15, CH3CO-N-N-R-F-E-W-E-F-E-N-N-NH2] (Ac-NNRFEWEFENN-NH2)	−2	1.3-4 μm	118-220 nm	0.3-1.2 μm	5-7 nm	7-10 nm	growing in contact with and onto the peptide gel matrix	support of cell growth (L929 fibroblast cells; L929 cells in peptide gels): moderately successful in supporting cell growth; macroscopic appearance of gel (L929 fibroblast cells; at end of cell culture experiment): little sign of macroscopic degradation
CC(=O)N[C@@H](CC(N)=O)C(=O)N[C@@H](CC(N)=O)C(=O)N[C@@H](CCCNC(=N)N)C(=O)N[C@@H](Cc1ccccc1)C(=O)N[C@@H](CCCN)C(=O)N[C@@H](Cc1c[nH]c2ccccc12)C(=O)N[C@@H](CCCN)C(=O)N[C@@H](Cc1ccccc1)C(=O)N[C@@H](CCC(=O)O)C(=O)N[C@@H](CC(N)=O)C(=O)N[C@@H](CC(N)=O)C(N)=O [Peptide P11-16, CH3CO-N-N-R-F-O-W-O-F-E-N-N-NH2] (Ac-NNRF[Orn]W[Orn]FENN-NH2)	+2	1.2-3.9 μm	109-220 nm	0.5-1.6 μm	5-10 nm	11-20 nm	growing in contact with and onto the peptide gel matrix	–
QQR^+FQWQFE^-QQ (QQRFQWQFEQQ; self assembling peptide P11-2)	0	–	–	–	–	–	–	persistence length of fibrils [6]: 20-70 μm; persistence length of ribbons [6]: 1 μm; cI/N, isotropic to nematic transition concentration [7]: ≈ 0.9 mM; inter-ribbon distance in the fibril, α [8]: 2-2.4 nm; inter-rod separation in a beta-sheet tape b2 [8]: 0.47 nm; tape width b1 [8]: 4 nm
